Data on 15 compounds can be found in patent US12145947B2, “Pyrimidine based modulators and uses thereof” (Quanta Therapeutics, Inc., priority 2022, dated 2024).

This test has as its target T1, GST-tagged KRAS-G12D (2-169) (Homo sapiens, UniProt P01116, G12D).
T1 construct: GST-tagged KRAS-G12D (2-169, Reaction Biology, MSC-11-539); purchased Reaction Biology MSC-11-539 (KRAS G12D); MSC-11-502 (SOS1cat)
In words: Nucleotide exchange assay (NEA), SOS-mediated, HTRF, KRAS G12D. Format: biochemical. The settings on record: Table 4, IC50 extracted at 30 min. The essentials:
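GST-KRAS-G12D (2-169, 5 nM final) with Tb-anti-GST donor was preincubated with compound 1 h at RT (pH 7.3 HEPES buffer, MgCl2, DTT), then SOScat (564-1049, 20 nM) and GTP-DY-647P1 (150 nM) were added. HTRF was read at RT; % inhibition vs DMSO/no-SOS blank, 4-parameter IC50 taken at 30 min.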
For orientation: Time-resolved FRET reads energy transfer from a long-lived donor to a nearby acceptor.

As a reminder, the IC50 is the concentration at which inhibition is half-maximal.

T1 sequence (P01116 2-169 isoform P01116-2 G12D): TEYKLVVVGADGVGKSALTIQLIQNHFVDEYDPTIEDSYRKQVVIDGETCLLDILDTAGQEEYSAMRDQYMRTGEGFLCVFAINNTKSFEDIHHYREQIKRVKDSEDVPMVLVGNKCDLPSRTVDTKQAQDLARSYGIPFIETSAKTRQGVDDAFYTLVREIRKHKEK

The compound `Cc1n[nH]nc1COc1nc(N2C[C@H]3CC[C@@H](C2)N3)c(C#N)c(N2CC3(CCc4sc(N)c(C#N)c43)C2)n1` [Compound 108] displayed an IC50 of 0.01 to 0.1 µM.

As for `N#Cc1c(N2C[C@H]3CC[C@@H](C2)N3)nc(OC[C@@]23CCCN2C[C@H](F)C3)nc1N1CC2(C1)c1c(sc(N)c1C#N)CC1CC12` (stereo partly drawn) [Compound 99, 2-amino-1′-[5-cyano-6-[(1R,5S)-3,8-diazabicyclo[3.2.1]octan-3-yl]-2-[[(2R,8S)-2-fluoro-1,2,3,5,6,7-hexahydropyrrolizin-8-yl]methoxy]pyrimidin-4-yl]spiro[4a,5,5a,6-tetrahydrocyclopropa[f]benzothiophene-4,3′-azetidine]-3-carbonitrile], the IC50 was < 0.01 µM.

In the case of `CN(C)CC1(COc2nc(N3C[C@H]4CC[C@@H](C3)N4)c(C#N)c(N3CC4(CCc5sc(N)c(C#N)c54)C3)n2)CC1(F)F` (mixture of isomers) [Compound 74, 2-amino-1′-[5-cyano-6-(3,8-diazabicyclo[3.2.1]octan-3-yl)-2-[[1-[(dimethylamino)methyl]-2,2-difluoro-cyclopropyl]methoxy]pyrimidin-4-yl]spiro[5,6-dihydrocyclopenta[b]thiophene-4,3′-azetidine]-3-carbonitrile], the IC50 lay within 0.01 to 0.1 µM.

Turning to `C=C1CN2CCCC2(COc2nc(N3C[C@H]4CC[C@@H](C3)N4)c(C#N)c(N3CC4(CCc5sc(N)c(C#N)c54)C3)n2)C1` (stereo partly drawn) [Compound 94, 2-amino-1′-[5-cyano-2-[(6-methylene-2,3,5,7-tetrahydro-1H-pyrrolizin-8-yl)methoxy]-6-[(1R,5S)-3,8-diazabicyclo[3.2.1]octan-3-yl]pyrimidin-4-yl]spiro[5,6-dihydrocyclopenta[b]thiophene-4,3′-azetidine]-3-carbonitrile], the IC50 was < 0.01 µM.

Turning to `N#Cc1c(N2C[C@H]3CC[C@@H](C2)N3)nc(OCC2(c3ccn[nH]3)CC2)nc1N1CC2(CCc3sc(N)c(C#N)c32)C1` [Compound 98, 2-amino-1′-[5-cyano-6-[(1R,5S)-3,8-diazabicyclo[3.2.1]octan-3-yl]-2-[[1-(1H-pyrazol-5-yl)cyclopropyl]methoxy]pyrimidin-4-yl]spiro[5,6-dihydrocyclopenta[b]thiophene-4,3′-azetidine]-3-carbonitrile], the IC50 was < 0.01 µM.

As for `N#Cc1c(N2C[C@H]3CC[C@@H](C2)N3)nc(OCc2ccccc2)nc1N1CC2(CCc3sc(N)c(C#N)c32)C1` [Compound 76, 2-amino-1′-[2-benzyloxy-5-cyano-6-[(1R,5S)-3,8-diazabicyclo[3.2.1]octan-3-yl]pyrimidin-4-yl]spiro[5,6-dihydrocyclopenta[b]thiophene-4,3′-azetidine]-3-carbonitrile], the IC50 was < 0.01 µM.

Regarding `N#Cc1c(N2C[C@H]3CC[C@@H](C2)N3)nc(OC[C@@H]2CCN2CC(F)(F)F)nc1N1CC2(CCc3sc(N)c(C#N)c32)C1` [Compound 92, 2-amino-1′-[5-cyano-6-[(1R,5S)-3,8-diazabicyclo[3.2.1]octan-3-yl]-2-[[(2S)-1-(2,2,2-trifluoroethyl)azetidin-2-yl]methoxy]pyrimidin-4-yl]spiro[5,6-dihydrocyclopenta[b]thiophene-4,3′-azetidine]-3-carbonitrile], the IC50 lay within 0.01 to 0.1 µM.

For `C=C1CN2CCCC2(COc2nc(N3CCCn4nc(C(=O)N(C)C)c(Cl)c4C3)c(C#N)c(N3CC4(CCc5sc(N)c(C#N)c54)C3)n2)C1` (stereo not drawn) [Compound 93, 5-[6-(2-amino-3-cyano-spiro[5,6-dihydrocyclopenta[b]thiophene-4,3′-azetidine]-1′-yl)-5-cyano-2-[(6-methylene-2,3,5,7-tetrahydro-1H-pyrrolizin-8-yl)methoxy]pyrimidin-4-yl]-3-chloro-N,N-dimethyl-4,6,7,8-tetrahydropyrazolo[1,5-a][1,4]diazepine-2-carboxamide], the IC50 is < 0.01 µM.

As to `CN(C)CC1(COc2nc(N3CCCn4nc(C(=O)N(C)C)c(Cl)c4C3)c(C#N)c(N3CC4(CCCc5sc(N)c(C#N)c54)C3)n2)CC1(F)F` (stereo not drawn) [Compound 96, 5-[6-(2-amino-3-cyano-spiro[6,7-dihydro-5H-benzothiophene-4,3′-azetidine]-1′-yl)-5-cyano-2-[[1-[(dimethylamino)methyl]-2,2-difluoro-cyclopropyl]methoxy]pyrimidin-4-yl]-3-chloro-N,N-dimethyl-4,6,7,8-tetrahydropyrazolo[1,5-a][1,4]diazepine-2-carboxamide], the half-inhibitory concentration (IC50) was < 0.01 µM.

Consider `CN(C)CC1(COc2nc(N3CC4CCC(C3)N4)c(C#N)c(N3CC4(CCc5sc(N)c(C#N)c54)C3)n2)CC1(F)F` (stereo not drawn) [Compound 74B, 2-amino-1′-[5-cyano-6-(3,8-diazabicyclo[3.2.1]octan-3-yl)-2-[[(1*)-1-[(dimethylamino)methyl]-2,2-difluoro-cyclopropyl]methoxy]pyrimidin-4-yl]spiro[5,6-dihydrocyclopenta[b]thiophene-4,3′-azetidine]-3-carbonitrile], for which the IC50 (listed as 74.2) fell in the range of 0.01 to 0.1 µM.

The compound `C[C@@]1(O)CCCN(c2nc(OC[C@@]34CCCN3C[C@H](F)C4)nc(N3CC4(CCc5sc(N)c(C#N)c54)C3)c2C#N)C1` [Compound 27, 2-amino-1′-[5-cyano-2-[[(2R,8S)-2-fluoro-1,2,3,5,6,7-hexahydropyrrolizin-8-yl]methoxy]-6-[(3R)-3-hydroxy-3-methyl-1-piperidyl]pyrimidin-4-yl]spiro[5,6-dihydrocyclopenta[b]thiophene-4,3′-azetidine]-3-carbonitrile] returned an IC50 of 0.01 to 0.1 µM.

For `N#Cc1c(N2CCCC(O)CC2)nc(OC[C@@]23CCCN2C[C@H](F)C3)nc1N1CC2(CCc3sc(N)c(C#N)c32)C1` (stereo partly drawn) [Compound 40, 2-amino-1′-[5-cyano-6-(4-hydroxyazepan-1-yl)-2-[[(2R,8S)-2-fluoro-1,2,3,5,6,7-hexahydropyrrolizin-8-yl]methoxy]pyrimidin-4-yl]spiro[5,6-dihydrocyclopenta[b]thiophene-4,3′-azetidine]-3-carbonitrile], the IC50 is 0.01 to 0.1 µM.

Turning to `N#Cc1c(N2C[C@H]3CC[C@@H](C2)N3)nc(OCC2(CN3CC[S+]([O-])CC3)CC2)nc1N1CC2(CCc3sc(N)c(C#N)c32)C1` [Compound 71, 2-amino-1′-[5-cyano-6-[(1R,5S)-3,8-diazabicyclo[3.2.1]octan-3-yl]-2-[[1-[(1-oxo-1,4-thiazinan-4-yl)methyl]cyclopropyl]methoxy]pyrimidin-4-yl]spiro[5,6-dihydrocyclopenta[b]thiophene-4,3′-azetidine]-3-carbonitrile], the IC50 was < 0.01 µM.

Regarding `N#Cc1c(N2C[C@H]3CC[C@@H](C2)N3)nc(OCC2(CN3CCOCC3)CC2)nc1N1CC2(C1)c1c(sc(N)c1C#N)CC2F` (stereo partly drawn) [Compound 101, 2-amino-1′-[5-cyano-6-[(1R,5S)-3,8-diazabicyclo[3.2.1]octan-3-yl]-2-[[1-(morpholinomethyl)cyclopropyl]methoxy]pyrimidin-4-yl]-5-fluoro-spiro[5,6-dihydrocyclopenta[b]thiophene-4,3′-azetidine]-3-carbonitrile], the IC50 is < 0.01 µM.

In the case of `N#Cc1c(N2CC3COCC(C2)N3)nc(OC[C@]23CCCN2C[C@@H](F)C3)nc1N1CC2(CCc3sc(N)c(C#N)c32)C1` [Compound 43, 2-amino-1′-[5-cyano-2-[[(2S,8R)-2-fluoro-1,2,3,5,6,7-hexahydropyrrolizin-8-yl]methoxy]-6-(3-oxa-7,9-diazabicyclo[3.3.1]nonan-7-yl)pyrimidin-4-yl]spiro[5,6-dihydrocyclopenta[b]thiophene-4,3′-azetidine]-3-carbonitrile], the IC50 lay within 0.01 to 0.1 µM.
